Laboratory results: US12122778B2, “Activating pyruvate kinase R” (Novo Nordisk Health Care AG, priority 2018, dated 2024)

Experiments:
PKR(R510Q) = PKR(R510Q) (Homo sapiens, UniProt P30613, R510Q); experiment: Luminescence Biochemical Assay (Kinase Glo Plus), PKR R510Q mutant; settings: without FBP; for activation at 1.54 µM: 1.54 μM compound, read-out: AC50 LUM KGP woFBP % Fold@1.54 μM mean; for AC50: read-out: AC50 LUM KGP woFBP AC50 μM gmean; for Emax: read-out: AC50 LUM KGP woFBP MAX % FOLD mean
PKR(R510Q), sequence (P30613 whole entry R510Q): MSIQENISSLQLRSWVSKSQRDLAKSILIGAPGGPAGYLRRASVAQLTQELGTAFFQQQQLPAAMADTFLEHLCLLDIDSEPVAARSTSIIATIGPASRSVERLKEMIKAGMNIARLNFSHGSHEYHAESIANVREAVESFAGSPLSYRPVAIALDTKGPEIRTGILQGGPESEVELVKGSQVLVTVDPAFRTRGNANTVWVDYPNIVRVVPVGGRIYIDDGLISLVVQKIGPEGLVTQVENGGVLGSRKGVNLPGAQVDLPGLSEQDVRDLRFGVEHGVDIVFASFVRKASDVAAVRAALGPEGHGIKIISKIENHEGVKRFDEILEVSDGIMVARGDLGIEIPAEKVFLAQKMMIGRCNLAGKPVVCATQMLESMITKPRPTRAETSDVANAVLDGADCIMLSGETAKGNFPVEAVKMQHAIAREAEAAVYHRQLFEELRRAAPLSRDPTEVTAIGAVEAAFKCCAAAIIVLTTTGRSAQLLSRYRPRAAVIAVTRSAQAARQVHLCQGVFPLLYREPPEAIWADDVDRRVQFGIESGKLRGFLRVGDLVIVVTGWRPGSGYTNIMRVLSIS
Description: (§1) In some embodiments, a PKR Activating Compound can have: (1) an AC50 value of less than 0.1 μM (e.g., compounds with AC50 values of “+++” in Table 13), 0.1-1.0 μM (e.g., compounds with AC50 values of “++” in Table 13), or 1.01-40 μM (e.g., compounds with AC50 values of “+” in Table 13); (2) a MAX % Fold of 75%-250%, 250-500%, or 75%-500%; and/or (3) a % Fold@1.54 μM of 75%-250%, 250-500%, or 75%-500%. In some embodiments, a PKR Activating Compound has (1) an AC50 value of less than 1.0 μM; (2) a MAX % Fold of 75%-500%; and/or (3) a % Fold@1.54 μM of 75%-500%.
(§2) The phosphorylation of Adenosine-5′-diphosphate (ADP) by various mutants of PKR was determined by the Kinase Glo Plus Assay (Promega) in the presence or absence of FBP [D-Fructose-1,6-diphosphate; BOC Sciences, CAS: 81028-91-3] as follows. Unless otherwise indicated, all reagents were purchased from Sigma-Aldrich. All reagents were prepared in buffer containing 50 mM Tris-HCl, 100 mM KCl, 5 mM MgCl2, and 0.01% Triton X100, 0.03% BSA, and 1 mM DTT. Enzyme and PEP [Phospho(enol) pyruvic acid] were added at 2× to all wells of an assay-ready plate containing serial dilutions of test compounds or DMSO vehicle. Final enzyme concentrations for PKR(wt), PKR(R510Q), and PKR(G332S) were 0.8 nM, 0.8 nM, and 10 nM respectively. Final PEP concentration was 100 μM. The Enzyme/PEP mixture was incubated with compounds for 30 minutes at RT before the assay was initiated with the addition of 2×ADP [Adenosine-5′-diphosphate] and KinaseGloPlus. Final concentration of ADP was 100 μM. […] For assays containing FBP, that reagent is added at 30 μM upon reaction initiation. Reactions were allowed to progress for 45 minutes at RT until luminescence was recorded by the BMG PHERAstar FS Multilabel Reader. All compounds were tested in triplicate at concentrations ranging from 42.5 μM to 2.2 nM in 0.83% DMSO.
(§3) Luminescence values were converted to % Fold increase by normalizing to the average of the DMSO control and multiplying by 100. Max, min, slope and AC50 were determined by the standard four parameter fit algorithm of ActivityBase XE Runner. Compounds were evaluated with three parameters—AC50, MAX % Fold, and % Fold@1.54 μM (FIG. 1). The AC50 value for a compound is the concentration (μM) corresponding to the midway between the maximum and minimum values of the four parameter logistic curve fit (i.e., at which the % fold increase along the four parameter logistic curve fit is halfway between MAX % Fold and MIN % Fold (% Fold Midpoint)), MAX % Fold is the highest fold increase observed at any concentration of compound, and % Fold@1.54 μM is the fold increase at a compound concentration of 1.54 μM. The parameter % Fold@1.54 μM was selected to capture elements of both the AC50 and MAX % Fold and to provide a ranking based on both potency and effect. The compound concentration of 1.54 μM was chosen as one that can optimally differentiate the set of compounds based on the range of activities observed.
(§4) As set forth in Table 13 below, AC50 values (columns A, D, G) are defined as follows: ≤0.1 μM (+++); >0.1 μM and ≤1.0 μM (++); >1.0 μM and ≤40 μM (+); >40 μM (0). Max % FOLD values (columns B, E, H) are defined as follows: ≤75% (+); >75% and ≤250% (++); >250% and ≤500% (+++). % Fold@1.54 μM values (columns C, F, J) are defined as follows: ≤75% (+); >75% and ≤250% (++); >250% and ≤50000 (+++).

PKR(wt) = PKR(wt) (Homo sapiens, UniProt P30613); experiment: Luminescence Biochemical Assay (Kinase Glo Plus), wild type PKR; settings: without FBP; for activation at 1.54 µM: 1.54 μM compound, read-out: AC50 LUM KGP woFBP % Fold@1.54 μM mean; for AC50: read-out: AC50 LUM KGP woFBP AC50 μM gmean; for Emax: read-out: AC50 LUM KGP woFBP MAX % FOLD mean
PKR(wt), sequence (P30613 whole entry): as the sequence (P30613 whole entry R510Q) above, with Q510R counted along it
Description: as §1, §2, §3, §4

| activation at 1.54 µM (PKR(R510Q)) | AC50 (PKR(R510Q)) | Emax (PKR(R510Q)) | activation at 1.54 µM (PKR(wt)) | AC50 (PKR(wt)) | Emax (PKR(wt)) | Compound |
| --- | --- | --- | --- | --- | --- | --- |
| 75 to 250% | 1 to 40 µM | 250 to 500% | 75 to 250% | 1 to 40 µM | 250 to 500% | O=C(C1OCCc2ccccc21)N1CC2=C(C1)CN(S(=O)(=O)c1ccc(OC(F)F)cc1)C2 (stereo not drawn) [Example 18-33, 2-[4-(Difluoromethoxy)benzenesulfonyl]-5-(3,4-dihydro-1H-2-benzopyran-1-carbonyl)-1H,2H,3H,4H,5H,6H-pyrrolo[3,4-c]pyrrole] |
| 75 to 250% | 0.1 to 1 µM | 250 to 500% | 75 to 250% | 0.1 to 1 µM | 75 to 250% | N#Cc1ccc(S(=O)(=O)N2CC3=C(CN(C(=O)[C@H](O)c4ccccc4)C3)C2)cc1 [Example 18-45, 4-({5-[(2R)-2-hydroxy-2-phenylacetyl]-1H,2H,3H,4H,5H,6H-pyrrolo[3,4-c]pyrrol-2-yl}sulfonyl)benzonitrile] |
| 75 to 250% | 0.1 to 1 µM | 250 to 500% | 75 to 250% | 0.1 to 1 µM | 75 to 250% | O=C([C@H](O)c1ccccc1)N1CC2=C(C1)CN(S(=O)(=O)c1ccc(Cl)s1)C2 [Example 18-55, (2R)-1-{5-[(5-chlorothiophen-2-yl)sulfonyl]-1H,2H,3H,4H,5H,6H-pyrrolo[3,4-c]pyrrol-2-yl}-2-hydroxy-2-phenylethan-1-one] |
| 250 to 50000% | 0.1 to 1 µM | 250 to 500% | 250 to 50000% | 0.1 to 1 µM | 250 to 500% | Cc1cc(CNC(=O)N2CC3=C(C2)CN(S(=O)(=O)c2ccc(OC(F)F)cc2)C3)no1 [Example 21-5, 5-[4-(Difluoromethoxy)benzenesulfonyl]-N-[(5-methyl-1,2-oxazol-3-yl)methyl]-1H,2H,3H,4H,5H,6H-pyrrolo[3,4-c]pyrrole-2-carboxamide] |
| 250 to 50000% | 0.1 to 1 µM | 250 to 500% | 250 to 50000% | 0.1 to 1 µM | 250 to 500% | Cc1cc(CNC(=O)N2CC3=C(C2)CN(S(=O)(=O)c2ccc(OC(F)F)cc2)C3)on1 [Example 21-6, 5-[4-(Difluoromethoxy)benzenesulfonyl]-N-[(3-methyl-1,2-oxazol-5-yl)methyl]-1H,2H,3H,4H,5H,6H-pyrrolo[3,4-c]pyrrole-2-carboxamide] |
| 75 to 250% | 1 to 40 µM | 75 to 250% | 75 to 250% | 0.1 to 1 µM | 75 to 250% | CC(C)Oc1cccc(CNC(=O)N2CC3=C(C2)CN(S(=O)(=O)c2ccc4ncsc4c2)C3)c1 [Example 21-21, 5-(1,3-Benzothiazole-6-sulfonyl)-N-{[3-(propan-2-yloxy)phenyl]methyl}-1H,2H,3H,4H,5H,6H-pyrrolo[3,4-c]pyrrole-2-carboxamide] |
| 75 to 250% | 0.1 to 1 µM | 75 to 250% | 75 to 250% | 0.1 to 1 µM | 250 to 500% | O=C(NCc1nccs1)N1CC2=C(C1)CN(S(=O)(=O)c1ccc3ncsc3c1)C2 [Example 21-28, 5-(1,3-Benzothiazole-6-sulfonyl)-N-(1,3-thiazol-2-ylmethyl)-1H,2H,3H,4H,5H,6H-pyrrolo[3,4-c]pyrrole-2-carboxamide] |
| 75 to 250% | 0.1 to 1 µM | 75 to 250% | 250 to 50000% | 0.1 to 1 µM | 250 to 500% | O=C(NCc1ncco1)N1CC2=C(C1)CN(S(=O)(=O)c1ccc3ncsc3c1)C2 [Example 21-29, 5-(1,3-Benzothiazole-6-sulfonyl)-N-(1,3-oxazol-2-ylmethyl)-1H,2H,3H,4H,5H,6H-pyrrolo[3,4-c]pyrrole-2-carboxamide] |

Second part, the compound before the results:

| Compound | activation at 1.54 µM (PKR(R510Q)) | AC50 (PKR(R510Q)) | Emax (PKR(R510Q)) | activation at 1.54 µM (PKR(wt)) | AC50 (PKR(wt)) | Emax (PKR(wt)) |
| --- | --- | --- | --- | --- | --- | --- |
| Cc1ccc(F)c(S(=O)(=O)N2CC3=C(CN(C(=O)[C@H](O)c4ccccc4)C3)C2)c1 [Example 18-16, (2R)-1-[5-(2-fluoro-5-methylbenzenesulfonyl)-1H,2H,3H,4H,5H,6H-pyrrolo[3,4-c]pyrrol-2-yl]-2-hydroxy-2-phenylethan-1-one] | 250 to 50000% | ≤ 0.1 µM | 250 to 500% | 75 to 250% | ≤ 0.1 µM | 75 to 250% |
| COc1ccc(S(=O)(=O)N2CC3=C(CN(C(=O)[C@H](O)c4ccccc4)C3)C2)cc1F [Example 18-17, (2R)-1-[5-(3-fluoro-4-methoxybenzenesulfonyl)-1H,2H,3H,4H,5H,6H-pyrrolo[3,4-c]pyrrol-2-yl]-2-hydroxy-2-phenylethan-1-one] | 250 to 50000% | ≤ 0.1 µM | 250 to 500% | 75 to 250% | ≤ 0.1 µM | 75 to 250% |
| O=C([C@H](O)c1ccccc1)N1CC2=C(C1)CN(S(=O)(=O)c1ccc(F)cc1F)C2 [Example 18-18, (2R)-1-[5-(2,4-difluorobenzenesulfonyl)-1H,2H,3H,4H,5H,6H-pyrrolo[3,4-c]pyrrol-2-yl]-2-hydroxy-2-phenylethan-1-one] | 250 to 50000% | 0.1 to 1 µM | 250 to 500% | 75 to 250% | ≤ 0.1 µM | 75 to 250% |
| O=C([C@H](O)c1ccccc1)N1CC2=C(C1)CN(S(=O)(=O)c1cccc(C(F)(F)F)c1)C2 [Example 18-49, (2R)-2-hydroxy-2-phenyl-1-{5-[3-(trifluoromethyl)benzenesulfonyl]-1H,2H,3H,4H,5H,6H-pyrrolo[3,4-c]pyrrol-2-yl}ethan-1-one] | 75 to 250% | 0.1 to 1 µM | 75 to 250% | 75 to 250% | 0.1 to 1 µM | 75 to 250% |
| O=C([C@H](O)c1ccccc1)N1CC2=C(C1)CN(S(=O)(=O)c1cccc(F)c1)C2 [Example 18-50, (2R)-1-[5-(3-fluorobenzenesulfonyl)-1H,2H,3H,4H,5H,6H-pyrrolo[3,4-c]pyrrol-2-yl]-2-hydroxy-2-phenylethan-1-one] | 75 to 250% | 0.1 to 1 µM | 250 to 500% | 75 to 250% | 0.1 to 1 µM | 75 to 250% |
| Cc1cc(CNC(=O)N2CC3=C(C2)CN(S(=O)(=O)c2ccc4ncsc4c2)C3)on1 [Example 21-9, 5-(1,3-Benzothiazole-6-sulfonyl)-N-[(3-methyl-1,2-oxazol-5-yl)methyl]-1H,2H,3H,4H,5H,6H-pyrrolo[3,4-c]pyrrole-2-carboxamide] | 75 to 250% | 0.1 to 1 µM | 250 to 500% | 75 to 250% | 0.1 to 1 µM | 250 to 500% |
| O=C(NCc1ccno1)N1CC2=C(C1)CN(S(=O)(=O)c1ccc3ncsc3c1)C2 [Example 21-27, 5-(1,3-Benzothiazole-6-sulfonyl)-N-(1,2-oxazol-5-ylmethyl)-1H,2H,3H,4H,5H,6H-pyrrolo[3,4-c]pyrrole-2-carboxamide] | 75 to 250% | 1 to 40 µM | 75 to 250% | 75 to 250% | 0.1 to 1 µM | 75 to 250% |
| O=C(NCc1cnccn1)N1CC2=C(C1)CN(S(=O)(=O)c1ccc3ncsc3c1)C2 [Example 21-30, 5-(1,3-Benzothiazole-6-sulfonyl)-N-(pyrazin-2-ylmethyl)-1H,2H,3H,4H,5H,6H-pyrrolo[3,4-c]pyrrole-2-carboxamide] | 75 to 250% | 1 to 40 µM | 250 to 500% | 250 to 50000% | 0.1 to 1 µM | 250 to 500% |
